Experimental findings from patent US11166924B2, “N-methyl-d-aspartate receptor allosteric modulators and methods for their use” (Qingdao Primedicine Pharmaceutical Company, Ltd., priority 2016, dated 2021) are described below.

In this test the test system is CREB phosphorylation (pCREB) on Serine 133. Description: pCREB levels in hippocampal slices. Also noted: species or system rat. Particulars: 10 μM; 30 min exposure; FIG. 21. The protocol:
Male Sprague Dawley rats 4-8 weeks old (125-200 gm) were decapitated, and their brains were dissected rapidly and placed into ice-cold chopping saline [containing (in mM): 110 sucrose, 60 NaCl, 3 KCl, 1.25 NaH2PO4, 28 NaHCO3, 5 D-glucose, 0.5 CaCl2, 7 MgCl2, and 0.6 ascorbate, saturated with 95% O2/5% CO2]. Then 400 μm transverse slices were prepared with a Vibratome Series 1000 (Pelco, Ted Pella, Redding, Calif.). Slices were transferred immediately into a 1:1 mix of chopping saline and normal ACSF [containing (in mM): 125 NaCl, 2.5 KCl, 1.25 NaH2PO4, 25 NaHCO3, 10 D-glucose, 2 CaCl2, and 1 MgCl2, saturated with 95% O2/5% CO2] and maintained at room temperature for at least 90 min. Then the slices were transferred to ACSF at 32° C. in a submersion chamber for 45-60 min before pharmacological stimulation.
Brain tissues or cultured cells were lysed on ice in the lysis buffer and then the solution was centrifuged at 14,000 rpm for 10 min at 4° C. Next, the supernatant was collected and protein concentrations were determined using a BCA protein assay kit (Thermo Scientific, 23227). […] The band density of each protein was quantified by the Bio-Rad Quantity One software and the relative optical density was analyzed relative to loading total-CREB on the same membrane. […]

Turning to `CCOc1cc(Cl)c(Cl)c(/C=N/NC(=O)c2ccccc2Br)c1O` [Npam43, (E)-2-bromo-N′-(2,3-dichloro-5-ethoxy-6-hydroxybenzylidene)benzohydrazide], the “pCREB levels in hippocampal slices” value is reported as “significantly enhanced pCREB levels”.
